The text below walks through data of ChEMBL document CHEMBL1127021, “Structure-activity relationship of a series of phenylureas linked to 4-phenylimidazole. Novel potent inhibitors of acyl-CoA:cholesterol O-acyltransferase with antiatherosclerotic activity. 2” (J Med Chem, 1993).

The target of experiment [1] is T1, Acyl-CoA:cholesterol acyltransferase (Oryctolagus cuniculus, UniProt Q95214).
T1 sequence (Q95214 whole entry): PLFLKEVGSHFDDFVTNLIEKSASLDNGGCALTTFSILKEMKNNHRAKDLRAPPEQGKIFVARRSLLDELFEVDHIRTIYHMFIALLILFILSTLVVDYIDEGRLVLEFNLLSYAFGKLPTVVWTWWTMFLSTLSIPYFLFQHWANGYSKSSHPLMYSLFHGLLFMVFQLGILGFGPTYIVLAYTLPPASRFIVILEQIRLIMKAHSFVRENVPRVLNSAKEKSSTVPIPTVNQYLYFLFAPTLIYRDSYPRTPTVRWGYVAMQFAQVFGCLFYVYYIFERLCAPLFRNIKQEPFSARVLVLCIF
Put plainly: Inhibition against acyl coenzyme A:cholesterol acyltransferase derived from rabbit aorta homogenate. It is filed as tissue-based.

The next experiment concerns the target O-acyltransferase (Oryctolagus cuniculus, UniProt G1SFD9). Briefly: Inhibition against acyl coenzyme A:cholesterol acyltransferase derived from rabbit intestine microsomes.
In experiment [2] the test system is Rattus norvegicus. Briefly: Cholesterol lowering activity in rats after a dose of 1 mg/kg once a day for 2 days. It counts as functional.
Experiment [3] has as its system Rattus norvegicus. Briefly: Cholesterol lowering activity in rats after a dose of 4 mg/kg once a day for 2 days. It is filed as functional.

Chain of O-acyltransferase (G1SFD9 1-524): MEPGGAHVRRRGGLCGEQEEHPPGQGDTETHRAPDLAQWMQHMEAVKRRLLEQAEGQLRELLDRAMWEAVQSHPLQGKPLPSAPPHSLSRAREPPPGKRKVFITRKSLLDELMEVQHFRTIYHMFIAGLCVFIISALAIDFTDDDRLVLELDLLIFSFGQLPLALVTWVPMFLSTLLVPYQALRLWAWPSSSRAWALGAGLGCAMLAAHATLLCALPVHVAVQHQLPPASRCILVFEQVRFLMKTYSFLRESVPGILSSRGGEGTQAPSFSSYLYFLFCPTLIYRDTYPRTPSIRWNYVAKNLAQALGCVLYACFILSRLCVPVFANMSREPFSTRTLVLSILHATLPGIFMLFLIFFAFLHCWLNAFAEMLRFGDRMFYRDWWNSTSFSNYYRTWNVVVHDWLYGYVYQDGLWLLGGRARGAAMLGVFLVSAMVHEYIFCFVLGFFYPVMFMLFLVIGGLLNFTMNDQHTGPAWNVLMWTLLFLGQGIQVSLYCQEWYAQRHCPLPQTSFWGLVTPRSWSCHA

Take `CCc1c(-c2ccccc2)ncn1CCCOc1cccc(C)c1NC(=O)NCCC(C)C`: the concentration for half-maximal inhibition (IC50) – broadly, the point on the concentration scale where inhibition reaches its midpoint – in experiment [1] worked out at 72 nM; against O-acyltransferase, 220 nM. The Cholesterol reduction in the experiment with Rattus norvegicus [2] is -46%.

`CCCCCNC(=O)Nc1c(C)cccc1OCCCn1cnc(-c2ccc(NS(C)(=O)=O)cc2)c1`: the concentration for half-maximal inhibition (IC50) (in experiment [1]; at O-acyltransferase) was above 1000 nM each time.

In the case of `CCCCCNC(=O)Nc1c(C)cccc1OCCCn1cnc(-c2ccccc2)c1CN(C)C`, the half-inhibitory concentration (IC50) in experiment [1] came out at 310 nM; against O-acyltransferase it was 670 nM. Moreover, the Cholesterol reduction in the experiment on Rattus norvegicus [3] was -10%.

In the case of `Cc1cccc(OCCCn2cnc(-c3ccccc3)c2C)c1NC(=O)NCC(C)(C)C`, the concentration for half-maximal inhibition (IC50) came out at 140 nM in experiment [1] and 210 nM at O-acyltransferase. In addition, in the experiment on Rattus norvegicus [2], the Cholesterol reduction was -64%.

On to `Cc1cccc(OCCCn2cnc(-c3ccccc3)c2Cl)c1NC(=O)NCCC(C)C`, for which the values for the IC50 (in experiment [1]; against O-acyltransferase) were 88 nM and 140 nM, respectively. Moreover, the Cholesterol reduction in the experiment on Rattus norvegicus [2] is -59%.

On to `CCCCCNC(=O)Nc1c(C)cccc1C(=O)NCCn1cnc(-c2ccccc2)c1C`, for which the results for the concentration for half-maximal inhibition (IC50) (in experiment [1]; at O-acyltransferase) were 280 nM and 97 nM, respectively. For the same compound, the Cholesterol reduction in the experiment with Rattus norvegicus [3] is -25%.

For the compound `CCCCCNC(=O)Nc1c(C)cccc1SCCCn1cnc(-c2ccccc2)c1C`, the IC50 in experiment [1] stood at 86 nM; against O-acyltransferase it was 77 nM. In addition, the Cholesterol reduction with Rattus norvegicus [3] is given as -7%.

Consider `CCCCCNC(=O)Nc1c(C)cccc1OCCCn1cnc(-c2cc(OC)c(OC)c(OC)c2)c1`, for which the IC50 was determined as 900 nM in experiment [1] and 510 nM on O-acyltransferase.

On to `CCCCCNC(=O)Nc1c(C)cccc1OCCCn1cnc(-c2c(OC)cc(OC)cc2OC)c1`, for which the 50% inhibitory concentration (IC50) (in experiment [1]; at O-acyltransferase) was above 1000 nM in each case.

Take `CCCCCNC(=O)Nc1c(C)cccc1CS(=O)(=O)CCn1cnc(-c2ccccc2)c1C`: the IC50 in experiment [1] is 90 nM; against O-acyltransferase it was above 1000 nM.

As to `CCCCNC(=O)Nc1c(C)cccc1OCCCn1cnc(-c2ccccc2)c1CO`, the IC50 in experiment [1] worked out at 590 nM; against O-acyltransferase, 190 nM. Also, in the experiment with Rattus norvegicus [2], the Cholesterol reduction is -21%.

On to `CCCCCNC(=O)Nc1c(O)cccc1OCCCn1cnc(-c2ccccc2)c1C`, for which the half-maximal inhibitory concentration (IC50) was 960 nM in experiment [1] and 460 nM on O-acyltransferase.

Regarding `CCCCCNC(=O)Nc1c(C)cccc1COCCn1cnc(-c2ccccc2)c1C`, the half-maximal inhibitory concentration (IC50) is 100 nM in experiment [1] and 880 nM on O-acyltransferase. Further, in the experiment on Rattus norvegicus [3], the Cholesterol reduction turned out to be 2%.

Consider `CCCCCNC(=O)Nc1c(C)cccc1C[S+]([O-])CCn1cnc(-c2ccccc2)c1C` (stereo not given), for which the IC50 in experiment [1] was 440 nM; on O-acyltransferase, above 1000 nM.

As to `CCCCNC(=O)Nc1c(C)cccc1OCCCn1cnc(-c2ccccc2)c1`, in experiment [1], the half-maximal inhibitory concentration (IC50) was 310 nM. For the same compound, the Cholesterol reduction in the experiment on Rattus norvegicus [2] was -7%.

For `CCCCCNC(=O)Nc1c(C)cccc1S(=O)(=O)CCCn1cnc(-c2ccccc2)c1C`, the IC50 in experiment [1] is 730 nM; on O-acyltransferase, 600 nM.

In the case of `CCCCCNC(=O)Nc1c(NC)cccc1OCCCn1cnc(-c2ccccc2)c1C`, the values for the IC50 (in experiment [1]; against O-acyltransferase) were 600 nM and 150 nM, respectively. Besides, in the experiment on Rattus norvegicus [3], the Cholesterol reduction is -35%.

With `CCCCCNC(=O)Nc1c(C)cccc1OCCCn1cnc(-c2ccccc2)c1C(=O)OCC`, the IC50 amounted to 55 nM in experiment [1] and 150 nM on O-acyltransferase.

With `CCCCCNC(=O)Nc1c(C)cccc1CSCCn1cnc(-c2ccccc2)c1C`, the 50% inhibitory concentration (IC50) was determined as 70 nM in experiment [1] and 570 nM on O-acyltransferase. For the same compound, the Cholesterol reduction with Rattus norvegicus [3] is -11%.

On to `CCCCCNC(=O)Nc1c(C)cccc1OCCCn1cnc(-c2ccccc2)c1C(N)=O`, for which the values for the 50% inhibitory concentration (IC50) (in experiment [1]; against O-acyltransferase) were above 1000 nM and 180 nM, respectively. For the same compound, the Cholesterol reduction in the experiment on Rattus norvegicus [2] was -20%.

As to `Cc1cccc(OCCCn2cnc(-c3ccccc3)c2CO)c1NC(=O)NCCC(C)C`, the values for the half-inhibitory concentration (IC50) (in experiment [1]; at O-acyltransferase) were 190 nM and 230 nM, respectively. Besides, the Cholesterol reduction in the experiment on Rattus norvegicus [2] is listed as -52%.

As to `CCCCCNC(=O)Nc1c(N)cccc1OCCCn1cnc(-c2ccccc2)c1C`, the values for the IC50 (in experiment [1]; against O-acyltransferase) were 590 nM and 100 nM, respectively. Moreover, the Cholesterol reduction in the experiment with Rattus norvegicus [3] was -21%.

Regarding `CCCCCNC(=O)Nc1c(NS(=O)(=O)C(F)(F)F)cccc1OCCCn1cnc(-c2ccccc2)c1C`, the half-maximal inhibitory concentration (IC50) was above 10000 nM in experiment [1] and above 1000 nM on O-acyltransferase.

On to `CCCCCNC(=O)Nc1c(OCCCn2cnc(-c3ccccc3)c2C)cccc1SC`, for which the 50% inhibitory concentration (IC50) worked out at 19 nM in experiment [1] and 230 nM against O-acyltransferase.

As to `CCCCCNC(=O)Nc1c(C)cccc1OCCCn1cnc(-c2ccccc2S(C)(=O)=O)c1`, the IC50 stood at 410 nM in experiment [1] and 160 nM at O-acyltransferase. The Cholesterol reduction in the experiment on Rattus norvegicus [3] is on record as -19%.

Turning to `CCCCCNC(=O)Nc1c(C)cccc1OCCCn1cnc(-c2ccccc2NS(C)(=O)=O)c1`, the concentration for half-maximal inhibition (IC50) in experiment [1] came to 240 nM; against O-acyltransferase it was 450 nM. The Cholesterol reduction in the experiment on Rattus norvegicus [3] was -39%.

Turning to `CCCCCNC(=O)Nc1c(F)cccc1OCCCn1cnc(-c2ccccc2)c1C`, the results for the IC50 (in experiment [1]; at O-acyltransferase) were 71 nM and 69 nM, respectively. The Cholesterol reduction with Rattus norvegicus [3] is given as -30%.

As for `CCCCCNC(=O)Nc1c(C)cccc1OCC(O)Cn1cnc(-c2ccccc2)c1C` (stereo not given), the figures for the 50% inhibitory concentration (IC50) (in experiment [1]; at O-acyltransferase) were 170 nM and 160 nM, respectively. Moreover, the Cholesterol reduction in the experiment with Rattus norvegicus [3] is -43%.

Consider `CCCCCNC(=O)Nc1c(C#N)cccc1OCCCn1cnc(-c2ccccc2)c1C`, for which the results for the IC50 (in experiment [1]; at O-acyltransferase) were 1900 nM and above 1000 nM, respectively.

In the case of `CCCCCNC(=O)Nc1c(NS(C)(=O)=O)cccc1OCCCn1cnc(-c2ccccc2)c1C`, the half-maximal inhibitory concentration (IC50) in experiment [1] was 480 nM; at O-acyltransferase, 140 nM. Besides, the Cholesterol reduction in the experiment with Rattus norvegicus [3] amounted to 3.6%.

For `CCCCCNC(=O)Nc1ccccc1OCCCn1cnc(-c2ccccc2)c1C`, the 50% inhibitory concentration (IC50) in experiment [1] turned out to be 390 nM; against O-acyltransferase it was 230 nM. The Cholesterol reduction with Rattus norvegicus [3] was found to be 3.9%.

On to `CCCCCNC(=O)Nc1c(Cl)cccc1OCCCn1cnc(-c2ccccc2)c1C`, for which the half-inhibitory concentration (IC50) is 100 nM in experiment [1] and 73 nM against O-acyltransferase. In addition, the Cholesterol reduction in the experiment on Rattus norvegicus [3] was -49%.

For the compound `CCCCCNC(=O)Nc1c(C)cccc1OCCCn1cnc(-c2ccccc2)c1CS(C)(=O)=O`, the half-inhibitory concentration (IC50) is above 1000 nM in experiment [1] and 410 nM at O-acyltransferase.

In the case of `CCCCCNC(=O)Nc1c(OC)cccc1OCCCn1cnc(-c2ccccc2)c1C`, the figures for the half-inhibitory concentration (IC50) (in experiment [1]; on O-acyltransferase) were 220 nM and 90 nM, respectively. Besides, in the experiment on Rattus norvegicus [3], the Cholesterol reduction was -34%.

As to `CCCCCNC(=O)Nc1c(OCCCn2cnc(-c3ccccc3)c2C)cccc1[N+](=O)[O-]`, the figures for the concentration for half-maximal inhibition (IC50) (in experiment [1]; at O-acyltransferase) were 60 nM and 44 nM, respectively. Further, in the experiment on Rattus norvegicus [3], the Cholesterol reduction is -52%.

For `CCCCCNC(=O)Nc1c(CN(C)C)cccc1OCCCn1cnc(-c2ccccc2)c1C`, the IC50 in experiment [1] was 2600 nM; against O-acyltransferase, 1300 nM.

Consider `CCCCCNC(=O)Nc1c(OCCCn2cnc(-c3ccccc3)c2C)cccc1S(C)(=O)=O`, for which the half-maximal inhibitory concentration (IC50) in experiment [1] turned out to be 50 nM; against O-acyltransferase, 140 nM. The Cholesterol reduction in the experiment with Rattus norvegicus [3] is recorded as -33%.

As for `CCCCCNC(=O)Nc1c(C)cccc1OCCCn1cnc(-c2cccc(NS(C)(=O)=O)c2)c1`, the IC50 (in experiment [1]; against O-acyltransferase) was above 1000 nM each time.

Take `CCCCCNC(=O)Nc1c(C)cccc1[S+]([O-])CCCn1cnc(-c2ccccc2)c1C` (stereo not given): the IC50 (in experiment [1]; against O-acyltransferase) was above 1000 nM in each case.

With `CCCCCNC(=O)Nc1c(C)cccc1OCCCn1cnc(-c2ccccc2)c1C(=O)O`, the IC50 (in experiment [1]; against O-acyltransferase) was above 1000 nM each time.

`CCCCCNC(=O)Nc1c(C)cccc1OCCCn1cnc(-c2ccccc2)c1Cl`: in experiment [1], the midpoint of inhibition, the IC50, lay at 84 nM. Also, in the experiment on Rattus norvegicus [2], the Cholesterol reduction is recorded as -41%.
